Tests used:
TIE2 mutant HUVECs [1] = assay: Mutant TIE2-transfected HUVEC cell morphology assay; type: cell-based, human; settings: 100 nM, imaged at 24 and 48 hours, TIE2 mutant HUVECs compared with WT TIE2 HUVECs
Experimental: (§1) HUVECs used for in vitro work were kindly provided by Dr. Lauri Eklund (Oulu, Finland). Briefly, cells were grown in endothelial cell growth media (Tebu-Bio, Boechout, Belgium) containing 10% fetal calf serum (Sigma-Aldrich, Diegem, Belgium) at 37 degrees Celsius, 5% CO2, and 95% humidity. Cells were allowed to expand until reaching 90-95% confluence at which point they were subcultured or harvested for assay use.
HUVEC cells (5×10^5 cells/plate) stably expressing WT or TIE2 mutants R849W, L914F, R1099*, Y897C/R915C, Y897F/F915L, or T1105N/T1106P were added to a 10 cm plate coated with attachment factor solution (Tebu-Bio, Boechout, Belgium) in 6 mL of endothelial cell growth media (Tebu-Bio, Boechout, Belgium) containing 10% fetal calf serum (Sigma-Aldrich, Diegem, Belgium). Cells were then incubated for 2 days at 37 degrees Celsius, 5% CO2, and 95% humidity. Next, test compound or DMSO was added to the wells (0.068% final DMSO concentration). The plates were then further incubated for 48 hours at 37 degrees Celsius, 5% CO2, and 95% humidity. The cells were imaged by microscopy at 24 hours and 48 hours after addition of compound.

[2] = test system: TIE2 mutant expressing HUVECs; assay: Mutant TIE2-transfected fibronectin assay (extracellular matrix); type: cell-based, human; settings: 100 nM, 48 hours, TIE2 mutant HUVECs versus WT TIE2
Experimental: as §1
HUVEC cells (3×10^5 cells/well) stably expressing WT or TIE2 mutants R849W, L914F, R1099*, Y897C/R915C, Y897F/F915L, or T1105N/T1106P were added to a 6-well plate coated with attachment factor solution (Tebu-Bio, Boechout, Belgium) in endothelial cell growth media (Tebu-Bio, Boechout, Belgium) containing 10% fetal calf serum (Sigma-Aldrich, Diegem, Belgium). Cells were then incubated for 24 hours at 37 degrees Celsius, 5% CO2, and 95% humidity. Next, test compound or DMSO was added to the wells (0.068% final DMSO concentration). The plates were then further incubated for 48 hours at 37 degrees Celsius, 5% CO2, and 95% humidity. Cells were switched into 2% FBS for overnight. Intracellular fibronectin levels were lower in transfectants, thus cellular lysates were collected and used as controls. […]

WT TIE2 and TIE2 mutants = assay: Mutant TIE2-transfected HUVEC Western blot assay: TIE2 phosphorylation; type: cell-based, human; settings: 100 nM, 4 hours, HUVECs with WT TIE2 and TIE2 mutants, presence or absence of ANGPT1 stimulation
Experimental: as §1
(§2) HUVEC cells (2.5×10^5 cells/well) stably expressing WT or TIE2 mutants R849W, L914F, R1099*, Y897C/R915C, Y897F/F915L, or T1105N/T1106P were added to a 6-well plate coated with attachment factor solution (Tebu-Bio, Boechout, Belgium) in 2 mL of endothelial cell growth media (Tebu-Bio, Boechout, Belgium) containing 10% fetal calf serum (Sigma-Aldrich, Diegem, Belgium). Cells were subsequently incubated overnight at 37 degrees Celsius, 5% CO2, and 95% humidity. The next day test compound or DMSO was added to the wells (0.068% final DMSO concentration). The plates were then incubated for 4 hours at 37 degrees Celsius, 5% CO2, and 95% humidity. Next, cells were stimulated with 1 μg/mL ANGPT1 for 15 minutes. Cells were lysed and pTIE2, TIE2, b-actin, pAKT (S473), pAKT (T308), AKT, pSTAT1, and STAT1 were detected by Western blot.

[3] = test system: HUVEC cells expressing mutant TIE2-L914F (VM lesions in matrigel plugs); assay: Venous malformation mouse model, diet from day of injection (Day 0); type: in vivo, athymic nude male mice
Experimental: (§3) For the in vivo model, fresh HUVEC transfectants were made using lentiviral infection. […]. Subsequently, 25,000 HUVECs/well (LGC Standards sarl, France) were grown on a 24-well plate for 24 hrs, infected with 500 μl of the lentivirus-TIE2-L914F mix, then cultured for another 48 hrs, collected, then frozen.
(§4) To evaluate the effect of the compound on vascular malformation (VM) lesion development in vivo, HUVEC cells (2.5×10^6) expressing mutant TIE2-L914F were cultured, detached, then resuspended in 200 μL matrigel (Corning). The mixture was injected subcutaneously into the dorsal back of athymic nude male mice, aged 5-7 weeks (Charles River). […] At post-implant day 7 or 16, mice were euthanized and the skin surrounding each matrigel plug was excised, then pinned flat onto a styrofoam board and fixed in 10% neutral buffered formalin solution (Sigma-Aldrich, Diegem, Belgium) overnight. Matrigel plugs were removed from the murine skin, dehydrated in a series of graded alcohol, and embedded in paraffin. Paraffin-embedded plugs were then cut into 5 μm sections for histological analysis. After de-paraffinization in xylene and rehydration in a series of degraded alcohol, sections were subjected to heat-induced antigen-retrieval in 0.1 M citrate buffer, pH 6.0, with or without 0.05% Tween-20. For immunohistochemical staining, sections were blocked with 3% H2O2 (Sigma-Aldrich, Diegem, Belgium), incubated with a biotinylated antibody against the human endothelial cell marker Ulex europaeus Agglutinin 1 (UEA1) (Vector labs, Brussels, Belgium), followed by a horseradish peroxidase-conjugated streptavidin secondary antibody (GE Healthcare, Diegem, Belgium), then in a DAB solution (Vector labs, Brussels, Belgium). Sections were counterstained with hematoxylin and mounted with VectaMount permanent mounting medium (Vector labs, Brussels, Belgium). For immunofluorescent staining (IF), sections were incubated with primary antibodies that recognize UEA1, the smooth muscle layer marker SMA (clone 1A4, Sigma-Aldrich, Diegem, Belgium), phosphorylated-TIE2(Y772) (Bioke, Leiden, Netherlands), or total TIE2 (Santa Cruz, Heidelberg, Germany). Secondary antibodies used were conjugated to Alexa488-, Alexa649-, or CY5-fluorophores. Slides were mounted with VectaShield Hardset mounting medium with DAPI (Vector labs, Brussels, Belgium). Images were acquired via a Panoramic 250 Flash III digital slide scanner (3D Histech, Hungary) and visualized with Caseviewer version 2.2 software (3D Histech, Hungary). The average vessel area was quantitated by making snapshots at a 20× objective of at least 5 areas of each matrigel plug and measuring the area of a least 6 UEA+ vessels each using ImageJ software.
To evaluate the overall vascular morphology within the explants, wholemount IF of vessels within matrigel plugs was done. After excising skins with matrigel plugs attached and flat-fixing them overnight in 10% neutral buffered formalin, an approximately 100-200 μm piece of the plug was sliced off and washed in 1×PBS. The pieces were blocked overnight in 1% BSA (v/v) (Gibco) and 0.3% Triton-X100 (Sigma-Aldrich, Diegem, Belgium) in 1×PBS, then incubated in UEA1 for at least 72 hours, followed by in CY5-streptavidin secondary antibody (Vector labs, Brussels, Belgium). Pieces were then post-fixed in 10% NBF for 10 min, then mounted with Fluormount G (Thermo Fischer Scientific, Merelbeke, Belgium). Z-stack images were acquired with a Zeiss cell observer spinning disk confocal microscope (Zeiss, Germany); 3-D projections of Z-stacks were generated by the AriVis4D software. […] Non-vascularized UEA+ cells were also present but the expression is reduced. Also conducted were comparisons of treated and untreated VM lesions at day 16 with wild type and L914F TIE2 mutants in which treatment began at day 0 (FIG. 18A-D) or day 7 (FIG. 19A-C).

AKT = assay: Mutant TIE2-transfected HUVEC Western blot assay: AKT phosphorylation downstream of TIE2; type: cell-based, human; settings: 100 nM, 4 hours, HUVECs with WT TIE2 and TIE2 mutants, presence or absence of ANGPT1 stimulation
Experimental: as §1, §2

[4] = test system: HUVEC cells expressing mutant TIE2-L914F (VM lesions in matrigel plugs); assay: Venous malformation mouse model, previously established VM lesions, diet from post-implant day 7; type: in vivo, athymic nude male mice
Experimental: as §3
as §4, with “For immunofluorescent staining (IF), sections were incubated with primary antibodies that recognize UEA1, the smooth muscle layer marker SMA (clone 1A4, Sigma-Aldrich, Diegem, Belgium), phosphorylated-TIE2(Y772) (Bioke, Leiden, Netherlands), or total TIE2 (Santa Cruz, Heidelberg, Germany). Secondary antibodies used were conjugated to Alexa488-, Alexa649-, or CY5-fluorophores. Slides were mounted with VectaShield Hardset mounting medium with DAPI (Vector labs, Brussels, Belgium). Images were acquired via a Panoramic 250 Flash III digital slide scanner (3D Histech, Hungary) and visualized with Caseviewer version 2.2 software (3D Histech, Hungary).” left out, “software. […]” for “software.”

STAT1 = assay: Mutant TIE2-transfected HUVEC Western blot assay: STAT1 phosphorylation downstream of TIE2; type: cell-based, human; settings: 100 nM, 4 hours, HUVECs with WT TIE2 and TIE2 mutants, presence or absence of ANGPT1 stimulation
Experimental: as §1, §2

TIE2 mutant HUVECs [5] = assay: Mutant TIE2-transfected gene expression assay (quantitative PCR); type: cell-based, human; settings: 100 nM, 48 hours, normalized to GAPDH
Experimental: as §1
HUVEC cells (5×10^5 cells/plate) stably expressing WT or TIE2 mutants R849W, L914F, R1099*, Y897C/R915C, Y897F/F915L, or T1105N/T1106P were added to a 10 cm plate coated with attachment factor solution (Tebu-Bio, Boechout, Belgium) in endothelial cell growth media (Tebu-Bio, Boechout, Belgium) containing 10% fetal calf serum (Sigma-Aldrich, Diegem, Belgium). Cells were then incubated for 2 days at 37 degrees Celsius, 5% CO2, and 95% humidity. Next, test compound or DMSO was added to the wells (0.068% final DMSO concentration). The plates were then further incubated for 48 hours at 37 degrees Celsius, 5% CO2, and 95% humidity. RNA was extracted by collecting the cells into TriPure isolation reagent (Sigma-Aldrich, Diegem, Belgium). Subsequently, cDNA from extracted RNA was synthesized using RevertAid H Minus first strand cDNA synthesis kit (Thermo Fischer Scientific, Merelbeke, Belgium). Quantitative PCR was carried out using LightCycler480 SYBRGreen master mix and a LightCycler 480 II instrument (Roche, Switzerland). cDNA for ANGPT2, PDGFB, ADAMTS1, ADAMTS9, PLAT, and PLAU were quantified and normalized to the expression from the housekeeping gene GAPDH.

[6] = diet equivalent to 10 mg/kg from Day 0, post-implant day 7
[7] = diet equivalent to 10 mg/kg from Day 0, post-implant day 7, versus control diet
[8] = diet equivalent to 10 mg/kg from Day 0, post-implant day 16

CNC(=O)c1cc(Oc2ccc(NC(=O)Nc3cc(C(C)(C)C)nn3-c3ccc4ncccc4c3)c(F)c2)ccn1 [compound of Formula I, rebastinib]
cellular morphology (TIE2 mutant HUVECs [1]): restored cellular morphology
fibronectin levels in the extracellular matrix [2]: restored fibronectin levels
inhibition of TIE2 phosphorylation (WT TIE2 and TIE2 mutants): complete inhibition
gross appearance of blood-filled vascular channels (macroscopic view of lesions) ([3]; diet equivalent to 10 mg/kg from Day 0, compared to untreated mutants): more controlled and less severe
overall vascular morphology (wholemount IF) [3, 6]: more normal, tubular vessels were seen
smooth muscle cell/pericyte coverage (SMA staining) [3, 6]: displayed a few SMA positive cells
average area of vessels within the plugs [3, 7]: drastically less
expression of pTIE2 in ECs [3, 7]: weaker
overall vascular morphology (wholemount IF) [3, 8]: largely normalized
smooth muscle cell/pericyte coverage (SMA+ cells) [3, 8]: surrounded more consistently by SMA+ cells
vessel size in lesions ([3]; diet equivalent to 10 mg/kg from Day 0, post-implant day 16, versus control diet and untreated): much smaller vessels
pTIE2 in ECs ([3]; diet equivalent to 10 mg/kg from Day 0, post-implant day 16, versus untreated): drastically reduced
VM development ([3]; mice fed compound-infused food): reduced VM development
inhibition of AKT Ser473 phosphorylation (AKT): complete inhibition
inhibition of AKT Thr308 phosphorylation (AKT): complete inhibition
severity of established VMs ([4]; diet from post-implant day 7): ameliorated the severity of VMs
average vascular area of vessels ([4]; diet from post-implant day 7, explants day 16): moderately reduced
smooth muscle cell layer coverage ([4]; diet from post-implant day 7, explants day 16, versus control diet): improved smooth muscle cell layer coverage
inhibition of STAT1 phosphorylation (STAT1): complete inhibition
expression of ADAMTS1 RNA (TIE2 mutant HUVECs [5]): decreased expression
expression of ADAMTS9 RNA (TIE2 mutant HUVECs [5]): decreased expression
expression of ANGPT2 RNA (TIE2 mutant HUVECs [5]): increased expression
expression of PDGFB RNA (TIE2 mutant HUVECs [5]): increased expression
expression of PLAT RNA (TIE2 mutant HUVECs [5]): decreased expression
expression of PLAU RNA (TIE2 mutant HUVECs [5]): decreased expression
